Data published in patent publication US7074773B2, “Pharmaceutical composition for diabetic neuropathy” (priority 2001, dated 2006).
Where a name gives a salt, the structure may show the parent alone.

Assays:
[1] = tested on: streptozotocin-induced diabetic mice; assay: Charcoal powder transportability test of gastrointestinal tract using diabetic mice; type: in vivo, male ICR mice; settings: diabetes group
Procedure: Test: Charcoal Powder Transportability Test of Gastrointestinal Tract Using Diabetic Mice (in vivo)
Streptozotocin (200 mg/kg) dissolved in citrate buffer (pH 4.5) was intraperitoneally administered to male ICR mice (7–11 per group, body weight: about 20 g) to induce diabetes.
CDP-choline Na was dissolved in distilled water and orally administered at a dose of 100 mg/kg. once a day from immediately after induction of diabetes.
The mice that had undergone streptozotocin administration 8 weeks before were used for the test. A 5% activated charcoal powder suspension was prepared using 0.5% aqueous carboxymethylcellulose solution, and orally administered at 0.1 ml/mice to mice fasted from the previous day. After 30 min, the gastrointestinal tract from pyloric portion of stomach to rectum was enucleated and the whole length was measured. In addition, the position of the activated charcoal powder after movement was confirmed and the distance of movement from pyloric portion of stomach was measured. This was converted to numerical values based on the whole length of from pyloric portion of stomach to rectum as 100%, and the data was processed and taken to show charcoal powder transportability of gastrointestinal tract.
How the charcoal powder transportability of gastrointestinal tract changed in the diabetes group as compared to the normal group and the results with administration of 100 mg/kg of CDP-choline to the diabetes group are shown in Table 1. In Table 1, the normal group, diabetes group and diabetes+CDP-choline administration group were divided into three criteria of less than 40%, not less than 40% and less than 60%, and not less than 60% of charcoal powder transportability of gastrointestinal tract, and the number of incidents in each criterion is shown in percentage.

[2] = tested on: streptozotocin-induced diabetic mouse; assay: Assessment (threshold analysis) of thermal nociceptive response, tail-flick test, using diabetic mouse; type: in vivo, male ICR mice
Procedure: Test: Assessment (Threshold Analysis) of Thermal Nociceptive Response Using Diabetic Mouse (in vivo)
This test was performed according to the method of Osawa and Kamei [Eur. J. Pharmacol., 372, 221–228 (1999)]. […]
The assessment was performed using a tail-flick test. To be specific, photothermic stimulation was given to the tail of mouse, and the reaction latency until it moves the tail feeling the heat was measured. How the reaction latency changed in the diabetes group as compared to the normal group and the results with administration of 100 mg/kg of CDP-choline to the diabetes group are shown in FIG. 1.
(See the Method of Osawa and Kamei [Eur. J. Pharmacol., 372, 221–228 (1999)])
Streptozotocin (200 mg/kg) dissolved in citrate buffer (pH 4.5) was administered into the tail vein of male ICR mice (12–13 per group, body weight: about 20 g) to induce diabetes. […]
The assessment was performed using a tail-flick test.
Test: Assessment (Threshold Analysis) of Thermal Nociceptive Response Using diabetic Mice (in vivo)
CDP-choline Na was dissolved in distilled water and orally administered at a dose of 100 mg/kg once a day starting from the time point when 8 weeks passed from the administration of streptozotocin. […]

[3] = tested on: diabetic neuropathy patients; settings: Phase III controlled clinical trial; cited from earlier work
[4] = tested on: peripheral neuropathy induced by taxol; settings: reported in WO 00/11952; cited from earlier work
[5] = 100 mg/kg oral once a day from induction, 8 weeks after streptozotocin

## C[N+](C)(C)CCOP(=O)(O)OP(=O)([O-])OC[C@H]1O[C@@H](n2ccc(N)nc2=O)[C@H](O)[C@@H]1O [CDP-choline, cytidine 5′-diphosphocholine monosodium salt]
[1]; 100 mg/kg oral
  inhibition of degradation of charcoal powder transportability of gastrointestinal tract: complete inhibition
[1]; [5]
  incidence of mice with charcoal powder transportability of gastrointestinal tract less than 40%: 0%
  incidence of mice with charcoal powder transportability of gastrointestinal tract not less than 40% and less than 60%: 71.4%
  incidence of mice with charcoal powder transportability of gastrointestinal tract not less than 60%: 28.6%
[2]; 100 mg/kg oral from 8 weeks post-streptozotocin, at the lapse of 11 weeks after streptozotocin
  reaction latency prolongation-inhibitory effect: significant reaction latency prolongation-inhibitory effect was observed
[2]; Example 5, oral once a day from 5 weeks post-streptozotocin, 100 mg/kg, FIG. 3 at 7 weeks, similar at 6 or 8 weeks
  inhibitory effect on prolongation of reaction latency (diminished sensation of the sensory nerves): nearly completely inhibited
[2]; diabetes group, 30 mg/kg oral, from 5 weeks post-streptozotocin, data not shown
  effect on prolongation of reaction latency: a similar effect was observed
[2]; diabetes group, 100 mg/kg oral once a day from 5 weeks post-streptozotocin, FIG. 2
  inhibition of prolongation of reaction latency (diminished sensation): almost completely inhibited
[2]; diabetes group, 100 mg/kg oral once a day from immediately after induction of diabetes, FIG. 1
  inhibition of biphasic neuropathy (reaction latency, tail-flick): almost completely inhibited
[2]; diabetes group, 300 mg/kg oral, from immediately after induction of diabetes
  effect on reaction latency (tail-flick): a similar effect was found
[2]; normal group, 100 or 300 mg/kg
  effect on reaction latency (tail-flick) in normal group: no effect on the reaction latency

## Cc1cccc(C)c1OCC(C)N (stereo not shown) [mexiletine hydrochloride]
[3]
  spontaneous pain relieving rate: not more than 50%

## CC(=O)OC[C@H]1O[C@@H](n2ccc(=O)[nH]c2=O)[C@H](OC(C)=O)[C@@H]1OC(C)=O [triacetyluridine]
[4]
  efficacy for peripheral neuropathy (diminished sensation) induced by taxol: effective
